Test results reported in patent US4863951A, “Pharmacologically active amino-5,6,7,8-tetrahydronaphtho [2,3-B] furan compounds” (ADIR Et Cie, priority 1987, dated 1989).
Where a name gives a salt, the structure may show the parent alone. Read-outs that look alike come from different tables or passages of the source.

Legend:
[1] = tested on: apomorphine-induced hypothermia; test: Antagonism with respect to apomorphine-induced hypothermia in mice; format: in vivo; conditions: Mus musculus, ip, apomorphine 1 mg.kg^-1 s.c., after 2 hours
Description: Testing for an antagonism with respect to apomorphine-induced hypothermia in mice was performed according to the method described by CHERMAT R. and PONCELET M. in J. Pharmac. (1983), 14, No. 1, p. 93-97. The dose of apomorphine administered subcutaneously was 1 mg.kg^-1. Tables VII and VIII show the percentage antagonism of the hypothermia observed after 2 hours.

[2] = tested on: apomorphine-induced rearing-up; test: Antagonism of apomorphine-induced rearing-up behavior in mice; format: in vivo; conditions: Mus musculus, ip, apomorphine 0.75 mg.kg^-1 s.c.
Description: Studied in the test of antagonism of apomorphine-induced rearing-up following the subcutaneous administration of a dose of 0.75 mg.kg^-1 of this substance in mice, the compounds of general formula I act in a clear-cut manner at doses greater than or equal to 2.5 mg.kg^-1 (i.p.). The same results are observed when the compounds of general formula I are administered orally at a dose of 20 mg.kg^-1. The activity of the compounds was assessed according to the method described by Protais P, Costentin J and Schwartz J. C. in Psychopharmacology (1976), 50, p. 1-6.
(s=significant difference, p<0.05).

[3] = tested on: apomorphine-induced stereotypy; test: Antagonism of apomorphine-induced stereotypy in rats; format: in vivo; conditions: Rattus norvegicus, ip, 0.5 h, apomorphine 1.5 mg.kg^-1 i.p., 30 minutes
Description: The inhibitory activity of the compounds of the invention with respect to apomorphine- or amphetamine-induced stereotypy in rats was assessed using the scale of scoring of stereotyped movements described by Quinton R. M. and Halliwell G. in Nature (1963), 200, p. 178-179.
Apomorphine or amphetamine was administered to the animals intraperitoneally at a dose of 1.5 mg.kg^-1. The percentage inhibition (-) or potentiation (+) of the stereotypy score (% ISS) shown in Tables IV and V for apomorphine corresponds to a measurement time of 30 minutes. In contrast, the percentage inhibition of the stereotypy score shown in Table VI for amphetamine corresponds to a measurement time of 3 hours. […]

[4] = tested on: reserpine-induced hypothermia; test: Antagonism of reserpine-induced hypothermia; format: in vivo, Swiss CD male mice; conditions: mice, reserpine 2.5 mg.kg^-1 i.p.
Description: The antidepressant effects of the compounds of the invention were investigated by assessing the antagonism of reserpine-induced hypothermia and the antagonism of the ponto-geniculo-occipital waves induced by the compound Ro4-1284 in cats.
The study is carried out on Swiss CD male mice (27-28 g). After distribution into groups of 10 animals each, reserpine is injected intraperitoneally at a dose of 2.5 mg.kg^-1. Three hours later, the compounds undergoing trial are administered intraperitoneally. The rectal temperature of the animals is measured one hour and two hours after the second treatment, and compared with the initial temperature To of these same animals, measured immediately before the administration of the compounds undergoing trial.

[5] = tested on: isolation-induced aggression; test: Antiaggressive effects: isolation-induced aggression in mice; format: in vivo; conditions: isolated mice, i.p.
From the text: The antiaggressive effects of the compounds of the invention were investigated by two methods, one of them testing for an inhibition of aggressive behavior in peviously isolated mice (Yen C. Y., Stanger A. L., and Millman N, Arch. Int. Pharmacodyn. Therap. (1959), 123, p. 179-185), and the other in isolated and bulbectomized rats (Garattini S. and Sigg E. B. "Aggressive Behaviour" p. 47-55 Ed. Excerpta Medica Found., Amsterdam, 1969).
(Tables IX and X, s=significant, p<0.05).

[6] = mice, i.p. dose 10, read-out: % antagonism of hypothermia
[7] = mice, i.p. dose 20, read-out: % antagonism of hypothermia
[8] = mice, i.p. dose 10 mg.kg^-1, read-out: % inhibition of rearing-up
[9] = mice, i.p. dose 20 mg.kg^-1, read-out: % inhibition of rearing-up
[10] = rats, i.p. dose 10 mg.kg^-1, read-out: % ISS (inhibition (-) or potentiation (+) of the stereotypy score)
[11] = rats, i.p. dose 20 mg.kg^-1, read-out: % ISS (inhibition (-) or potentiation (+) of the stereotypy score)
[12] = read-out: % inhibition of rearing-up, mice, i.p. dose 10 mg.kg^-1
[13] = read-out: % inhibition of rearing-up, mice, i.p. dose 20 mg.kg^-1
[14] = read-out: % inhibition of rearing-up, mice, i.p. dose 40 mg.kg^-1

Structure (SMILES): CC(CCCC(=O)O)NC1CCc2cc3c(cc2C1)OCC3 (racemic) [Example 27]
- change in vivo at 10 mg/kg [1, 6]: -5%
- change in vivo at 20 mg/kg [1, 7]: -32%
- change in vivo at 10 mg/kg [2, 8]: -46%
- change in vivo at 20 mg/kg [2, 9]: -63%
- change in vivo at 10 mg/kg [3, 10]: -5%
- change in vivo at 20 mg/kg [3, 11]: -8%
- % inhibition of hypothermia ([4]; 10 mg.kg^-1 i.p.): -13%
- % inhibition of hypothermia ([4]; 20 mg.kg^-1 i.p.): -21%

Structure (SMILES): CN(CC1CCCCC1)C1CCc2cc3c(cc2C1)OCC3 (racemic) [Example 10, dl-7-(N-Cyclohexylmethyl-N-methylamino)-2,3,5,6,7,8-hexahydronaphtho[2,3-b]furan hydrochloride]
- change in vivo at 10 mg/kg [2, 12]: 11%
- change in vivo at 20 mg/kg [2, 13]: 11%
- change in vivo at 40 mg/kg [2, 14]: -96%
- % of pairs of mice showing no sign of fighting ([5]; 5 mg.kg^-1): 0%
- % of pairs of mice showing no sign of fighting ([5]; 10 mg.kg^-1): 11%
- % of pairs of mice showing no sign of fighting ([5]; 20 mg.kg^-1): 60%

Structure (SMILES): FC(F)(F)CNC1CCc2cc3c(cc2C1)OCC3 (racemic) [Example 35, dl-7-[N-(2,2,2-Trifluoroethyl)amino]-2,3,5,6,7,8-hexahdronaphtho[2,3-b]furan hydrochloride]
- change in vivo at 10 mg/kg [1, 6]: -16%
- change in vivo at 20 mg/kg [1, 7]: -31%
- change in vivo at 10 mg/kg [2, 8]: -30%
- change in vivo at 20 mg/kg [2, 9]: -38%
- % inhibition of hypothermia ([4]; 10 mg.kg^-1 i.p.): -20%
- % inhibition of hypothermia ([4]; 20 mg.kg^-1 i.p.): -4%

Structure (SMILES): CC(CCCCC(=O)O)NC1CCc2cc3c(cc2C1)OCC3 (racemic) [Example 29, dl-6-{N-(2,3,5,6,7,8-Hexahydronaphtho[2,3-b]furan-7-yl)amino}-6-methylhexanoic acid hydrochloride]
- change in vivo at 10 mg/kg [3, 10]: 11%

Structure (SMILES): NC1CCCc2cc3c(cc21)OCC3 (racemic) [Example 15, dl-8-Amino-2,3,5,6,7,8-hexahydronaphtho[2,3-b]furan hyrochloride]
- change in vivo at 20 mg/kg [2, 13]: -9%
- change in vivo at 40 mg/kg [2, 14]: 0%

Structure (SMILES): O=C1CCCN1C1CCc2cc3c(cc2C1)OCC3 (racemic) [Example 37, dl-7-(2-Oxo-1-pyrrolidinyl)-2,3,5,6,7,8-hexahydronaphtho[2,3-b]furan]
- change in vivo at 10 mg/kg [3, 10]: -6%
- change in vivo at 20 mg/kg [3, 11]: -14%

Structure (SMILES): CCCNC1CCc2cc3c(cc2C1)OCC3 (racemic) [Example 34, dl-7-N-n-Propylamino)-2,3,5,6,7,8-hexahydronaphtho[2,3,-b]furan hydrochloride]
- change in vivo at 10 mg/kg ([1]; 2 h, read-out: % antagonism of hypothermia, mice, i.p. dose 10): -7%
- change in vivo at 20 mg/kg ([1]; 2 h, read-out: % antagonism of hypothermia, mice, i.p. dose 20): -16%
- change in vivo at 10 mg/kg [2, 12]: -23%
- change in vivo at 40 mg/kg [2, 14]: -100%
- change in vivo at 10 mg/kg ([3]; read-out: % ISS (inhibition (-) or potentiation (+) of the stereotypy score), rats, i.p. dose 10 mg.kg^-1): -68%
- change in vivo at 20 mg/kg ([3]; read-out: % ISS (inhibition (-) or potentiation (+) of the stereotypy score), rats, i.p. dose 20 mg.kg^-1): -70%

Structure (SMILES): NC1CCCc2cc3c(cc21)CCO3 (racemic) [Example 18, dl-5-Amino-2,3,5,6,7,8-hexahydronaphtho[2,3,-b]furan hydrochloride]
- change in vivo at 20 mg/kg [2, 13]: -12%
- change in vivo at 40 mg/kg [2, 14]: 6%

Structure (SMILES): NC1CCc2cc3ccoc3cc2C1 (racemic) [Example 21, dl-7-Amino-5,6,7,8-tetrahydronaphtho[2,3-b]furan hydrochloride]
- change in vivo at 10 mg/kg [2, 12]: -56%
- change in vivo at 20 mg/kg [2, 13]: -84%

Structure (SMILES): CC(CCCCCC(=O)O)NC1CCc2cc3c(cc2C1)OCC3 (racemic) [Example 31, dl-7-{N-(2,3,5,6,7,8-Hexahydronaphtho[2,3-b]furan-7-yl)amino}-7-methylheptanoic acid hydrochloride]
- change in vivo at 20 mg/kg [2, 9]: 5%
- change in vivo at 40 mg/kg ([2]; mice, i.p. dose 40 mg.kg^-1, read-out: % inhibition of rearing-up): 22%
- change in vivo at 10 mg/kg [3, 10]: 5%
- change in vivo at 20 mg/kg [3, 11]: -3%

Structure (SMILES): O=C(O)CCCCCNC1CCc2cc3c(cc2C1)OCC3 (racemic) [Example 25, dl-6-{N-(2,3,6,7,8-Hexahydronaphtho[2,3-b]furan-7-yl)amino}hexanoic acid hydrochloride]
- change in vivo at 10 mg/kg [3, 10]: 9%
- % of pairs of mice showing no sign of fighting ([5]; 10 mg.kg^-1): 20%

Structure (SMILES): NC1CCc2cc3c(cc2C1)CCO3 (racemic) [Example 19, dl-6-Amino-2,3,5,6,7,8-hexahydronaphtho[2,3-b]furan hydrochloride]
- change in vivo at 20 mg/kg [2, 13]: -57%
- change in vivo at 40 mg/kg [2, 14]: -90%
